Data reported in patent US6432985B1, “Neuroprotective substituted piperidine compounds with activity as NMDA NR2B subtype selective antagonists” (Hoffmann-La Roche Inc., priority 2000, dated 2002).

Tests used:
[1] = target: T1, NMDA NR2B subunit containing receptors (Rattus norvegicus, UniProt P35439+Q00960); assay: [3H]-Ro 25-6981 binding; settings: rat brain membranes; 5 nM 3H-Ro 25-6981; indicates affinity for NMDA NR2B subunit containing receptors; read-out: Inhibition of [3H]-Ro 25-6981 binding IC50
T1 construct: Membranes were prepared by homogenization of the whole brain minus cerebellum and medulla oblongata; from tissue; host or cells: rat whole brain minus cerebellum and medulla oblongata, membrane preparation
T1 sequence (Q00960 27-1482, other chains not shown): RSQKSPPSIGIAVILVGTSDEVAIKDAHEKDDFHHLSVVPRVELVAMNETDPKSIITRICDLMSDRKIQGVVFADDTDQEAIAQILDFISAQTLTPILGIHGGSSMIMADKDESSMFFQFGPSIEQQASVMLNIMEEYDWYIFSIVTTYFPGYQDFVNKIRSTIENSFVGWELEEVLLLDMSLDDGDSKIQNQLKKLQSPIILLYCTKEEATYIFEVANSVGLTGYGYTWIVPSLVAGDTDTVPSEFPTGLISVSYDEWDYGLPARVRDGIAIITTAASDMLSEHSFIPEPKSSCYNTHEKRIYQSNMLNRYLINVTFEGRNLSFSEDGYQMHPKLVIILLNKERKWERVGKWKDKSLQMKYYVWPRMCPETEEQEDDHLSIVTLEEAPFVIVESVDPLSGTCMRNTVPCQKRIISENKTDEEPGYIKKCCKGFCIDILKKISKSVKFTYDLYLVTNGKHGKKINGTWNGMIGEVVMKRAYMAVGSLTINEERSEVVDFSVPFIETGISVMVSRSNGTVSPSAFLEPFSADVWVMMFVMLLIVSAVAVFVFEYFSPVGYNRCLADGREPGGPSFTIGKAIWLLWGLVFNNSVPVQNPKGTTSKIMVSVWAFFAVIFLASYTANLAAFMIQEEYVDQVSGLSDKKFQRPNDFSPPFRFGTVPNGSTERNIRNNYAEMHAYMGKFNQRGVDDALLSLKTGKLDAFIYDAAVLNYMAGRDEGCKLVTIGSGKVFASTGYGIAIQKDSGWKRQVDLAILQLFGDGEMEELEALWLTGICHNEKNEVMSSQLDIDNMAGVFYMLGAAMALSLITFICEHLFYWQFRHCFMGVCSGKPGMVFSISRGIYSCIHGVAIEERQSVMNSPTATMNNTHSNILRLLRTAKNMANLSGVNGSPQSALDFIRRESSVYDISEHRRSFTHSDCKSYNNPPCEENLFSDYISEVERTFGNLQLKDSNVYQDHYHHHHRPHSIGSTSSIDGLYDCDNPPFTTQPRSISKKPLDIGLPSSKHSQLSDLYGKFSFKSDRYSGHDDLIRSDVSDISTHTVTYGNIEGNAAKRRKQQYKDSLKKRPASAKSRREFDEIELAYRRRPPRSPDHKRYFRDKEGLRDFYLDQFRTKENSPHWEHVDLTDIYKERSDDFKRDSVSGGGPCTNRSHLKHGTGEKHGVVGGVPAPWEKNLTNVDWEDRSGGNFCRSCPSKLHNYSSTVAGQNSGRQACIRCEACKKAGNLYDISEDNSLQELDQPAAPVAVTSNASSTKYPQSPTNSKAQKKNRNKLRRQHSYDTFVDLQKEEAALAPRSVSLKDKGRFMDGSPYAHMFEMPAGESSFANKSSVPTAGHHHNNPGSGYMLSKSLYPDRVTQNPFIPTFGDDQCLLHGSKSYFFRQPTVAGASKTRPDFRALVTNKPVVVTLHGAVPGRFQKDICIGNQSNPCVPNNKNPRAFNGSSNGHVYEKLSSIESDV
Method: 3H-Ro 25-6981 Binding(Ro 25-6981 is [R-(R*,S*)]-α-(4-Hydroxy-phenyl)-β-methyl-4-(phenyl-methyl)-1-piperidine propanol)
(§1) Male Füllinsdorf albino rats weighing between 150-200 g were used. Membranes were prepared by homogenization of the whole brain minus cerebellum and medulla oblongata with a Polytron (10,000 rpm, 30 seconds), in 25 volumes of a cold Tris-HCl 50 mM, EDTA 10 mM, pH 7.1 buffer. The homogenate was centrifuged at 48.000 g for 10 minutes at 4° C. The pellet was resuspended using the Polytron in the same volume of buffer and the homogenate was incubated at 37° C. for 10 minutes. After centrifugation the pellet was homogenized in the same buffer and frozen at −80° C. for at least 16 hours but not more than 10 days. For the binding assay the homogenate was thawed at 37° C., centrifuged and the pellet was washed three times as above in a Tris-HCl 5 mM, pH 7.4 cold buffer. The final pellet was resuspended in the same buffer and used at a final concentration of 200 μg of protein/ml.
[3H]-Ro 25-6981 binding experiments were performed using a Tris-HCl 50 mM, pH 7.4 buffer. For displacement experiments 5 nM of 3H-Ro 25-6981 were used and non specific binding was measured using 10 μM of tetrahydroisoquinoline and usually it accounts for 10% of the total. The incubation time was 2 hours at 4° C. and the assay was stopped by filtration on Whatman GF/B glass fiber filters (Unifilter-96, Packard, Zürich, Switzerland). The filters were washed 5 times with cold buffer. The radioactivity on the filter was counted on a Packard Top-count microplate scintillation counter after addition of […] of microscint 40 (Canberra Packard S.A., Zürich, Switzerland).
The effects of compounds were measured using a minimum of 8 concentrations and repeated at least once. The pooled normalized values were analyzed using a non-linear regression calculation program which provide IC50 with their relative upper and lower 95% confidence limits (RS1, BBN, USA).

[2] = target: α1-adrenergic receptors; assay: [3H]-Prazosin binding; settings: rat brain membranes; 0.2 nM 3H-Prazosine; indicates affinity for α1-adrenergic receptors; read-out: Inhibition of [3H]-Prazosin binding IC50
Method: as §1, with “a Plytron” for “a Polytron”, “[…]” for “200 μg”
3H-Prazosin binding experiments were performed using a Tris-HCl 50 mM, pH 7.4 buffer. For displacement experiments 0.2 nM of 3H-Prazosine were used and non specific binding was measured using […] of Chlorpromazine. The incubation time was 30 minutes at room temperature and the assay was stopped by filtration on Whatman GF/B glass fiber filters (Unifilter-96, Canberra Packard S.A., Zürich, Switzerland). The filters were washed 5 times with cold buffer. The radioactivity on the filter was counted on a Packard Top-count microplate scintillation counter after addition of […] of microscint 40 (Canberra Packard S.A., Zürich, Switzerland). The effects of compounds were measured using a minimum of 8 concentrations and repeated at least once. The pooled normalized values were analyzed using a non-linear regression calculation program which provide IC50 with their relative upper and lower 95% confidence limits (RS1, BBN, USA).

[3] = target: T2, hERG K+ channel (Homo sapiens, UniProt Q12809); assay: Inhibition of the hERG K+ channel (whole-cell patch-clamp, CHO cells); format: cell-based; settings: CHO cells stably transfected with hERG (pcDNA3-hERG), pH 7.3; average effect at 10 μM; recombinant human ERG channels in CHO cells; read-out: Inhibition of hERG K+ current, effect (%) at 10 μM
T2 construct: expressed in transfected cells
T2 sequence (Q12809 whole entry): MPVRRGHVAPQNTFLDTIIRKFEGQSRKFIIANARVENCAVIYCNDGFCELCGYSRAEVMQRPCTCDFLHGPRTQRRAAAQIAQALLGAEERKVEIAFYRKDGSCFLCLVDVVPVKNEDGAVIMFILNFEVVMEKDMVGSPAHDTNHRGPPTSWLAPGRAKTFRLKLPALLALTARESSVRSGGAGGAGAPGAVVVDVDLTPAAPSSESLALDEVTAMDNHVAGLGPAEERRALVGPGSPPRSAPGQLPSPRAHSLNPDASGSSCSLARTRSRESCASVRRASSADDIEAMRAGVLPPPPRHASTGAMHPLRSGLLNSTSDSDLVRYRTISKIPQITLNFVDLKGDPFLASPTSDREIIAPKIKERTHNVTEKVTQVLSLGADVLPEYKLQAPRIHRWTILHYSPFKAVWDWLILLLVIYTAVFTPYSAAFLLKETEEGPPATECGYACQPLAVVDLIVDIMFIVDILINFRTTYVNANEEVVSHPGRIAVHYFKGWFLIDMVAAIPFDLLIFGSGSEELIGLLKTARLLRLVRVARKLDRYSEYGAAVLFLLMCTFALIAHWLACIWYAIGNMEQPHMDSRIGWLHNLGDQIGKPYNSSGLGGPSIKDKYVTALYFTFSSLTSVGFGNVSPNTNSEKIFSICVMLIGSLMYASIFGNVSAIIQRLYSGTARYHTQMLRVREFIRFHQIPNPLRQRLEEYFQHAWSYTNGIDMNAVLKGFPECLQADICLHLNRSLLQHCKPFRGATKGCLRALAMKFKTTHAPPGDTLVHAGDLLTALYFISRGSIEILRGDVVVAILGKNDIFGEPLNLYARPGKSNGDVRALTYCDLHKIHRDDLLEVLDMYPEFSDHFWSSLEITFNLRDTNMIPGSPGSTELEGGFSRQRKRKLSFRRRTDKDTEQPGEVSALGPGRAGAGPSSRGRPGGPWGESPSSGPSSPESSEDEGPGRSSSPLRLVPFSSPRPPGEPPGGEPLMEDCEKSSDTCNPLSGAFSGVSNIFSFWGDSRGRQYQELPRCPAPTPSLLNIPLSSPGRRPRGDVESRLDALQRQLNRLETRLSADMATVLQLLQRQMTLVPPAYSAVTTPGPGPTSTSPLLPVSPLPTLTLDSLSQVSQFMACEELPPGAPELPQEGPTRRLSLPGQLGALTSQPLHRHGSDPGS
Excerpt: (§2) Methods for Studying the Inhibition of the hERG K^+ Channel
(§3) CHO cells were stably transfected by a pcDNA3-hERG expression vector containing a SV40-neo cassette for selection. Cells were thinly plated into 35 mm dishes and used for the electrophysiological experiment ½-3 d later.
(§4) During the experiment the cells were continuously superfused with an extracellular saline containing (in mM): NaCl 150, KCl 10, MgCl2 1, CaCl2 3, HEPES 10 (pH=7.3 by addition of NaOH). A 10-mM stock solution of the test compound was made from pure DMSO. Test solution were made by at least 1000-fold dilution of the stock solution into the extracellular saline. The glass micropipettes for whole-cell patch-clamp recording were filled with a containing (in mM): KCl 110, BAPTA 10, HEPES 10, MgCl2 4.5, Na2ATP 4, Na2-phosphocreatine 20, creatine kinase 200 μg/ml (pH=7.3 by addition of KOH).
(§5) The whole-cell configuration of the patch-clamp technique was used for the experiments. Cells were clamped to −80 mV holding potential and repetitively (0.1 Hz) stimulated by a voltage pulse pattern consisting of a 1-s conditioning depolarisation to 20 mV immediately followed by a hyperpolarisation of 50 ms duration to −120 mV. The membrane current was recorded for at least 3 min (18 stimuli) before compound application (control), and then for another two 3-min intervals in presence of two different concentrations of the compound. The current amplitudes (Itest) at the end of each compound application interval were divided by the mean current amplitude (Icontrol) during the initial control period to calculate the percentage effect of the compound:
(§6) effect (%)=(1-Itest/Icontrol)·100.
(§7) Compound concentrations were chosen in decade steps (usually 1 and 10 μM) around the expected 50% inhibitory concentration (IC50). If after the first experiment the IC50 turned out to lie outside the range between the two chosen concentrations the concentrations were changed to bracket the IC50 in the following experiments. The compound was tested on at least three cells. Its IC50 was then estimated from the population of all percent-effect values by non-linear regression using the function […]). Concentrations higher than 10 μM were not tested.

[4] = target: T3, recombinant human ERG potassium channels (Homo sapiens, UniProt Q12809); assay: as above; format: cell-based; settings: recombinant human ERG channels expressed in CHO cells; concentrations higher than 10 μM not tested; read-out: Inhibition of hERG K+ current IC50
T3 construct: expressed in transfected cells
T3 sequence (Q12809 whole entry): as above
Excerpt: as §2, §3, §4, §5, §6, §7

Row | IC50 [1] [µM] | IC50 [2] [µM] | SMILES | inhibition at 3 min, 10 µM [3] [%] | IC50 [4] [µM]
1 | 0.045 | 27 | Oc1ccc(OCCN2CC[C@](O)(Cc3ccccc3)[C@H](O)C2)cc1 (racemic) [I (racemate), (3R,4R) and (3S,4S)-4-benzyl-1-[2-(4-hydroxy-phenoxy)-ethyl]-piperidine-3,4-diol] | 45 | > 10
2 | 0.01 | 3.5 | Cc1ccc(CC2(O)CCN(CCOc3ccc(O)cc3)CC2)cc1 [EP 824098, 1-[2-(4-hydroxy-phenoxy)-ethyl]-4-(4-methyl-benzyl)-piperidin-4-ol, reference compound] | – | 0.69
3 | 0.038 | 25 | Oc1ccc(OCCN2CC[C@](O)(Cc3ccccc3)[C@H](O)C2)cc1 [I-1 (R,R), (3R,4R)-4-benzyl-1-[2-(4-hydroxy-phenoxy)-ethyl]-piperidine-3,4-diol] | 44 | > 10
4 | 0.039 | 30 | Oc1ccc(OCCN2CC[C@@](O)(Cc3ccccc3)[C@@H](O)C2)cc1 [I-2 (S,S), (3S,4S)-4-benzyl-1-[2-(4-hydroxy-phenoxy)-ethyl]-piperidine-3,4-diol] | 40 | > 10
